The record followed here is US5147878A, “Aminoalkoxyphenyl derivatives, process of preparation and compositions containing the same” (Sanofi, priority 1986, dated 1992).

Structures can show the parent of a compound that is named as a salt.

The assay deals with isolated rat aorta. As to the kind of experiment: Calcium inhibitory properties: contractile response to potassium-induced depolarization on isolated rat aorta. To be noted: for activity at 1 µM / activity at 0.1 µM / activity at 0.01 µM / activity at 0.001 µM: Rattus norvegicus, 1 h, read-out: % of the maximum contractional effect; for activity at 1 µM: 10^-6 M; for activity at 0.1 µM: 10^-7 M; for % of the maximum contractional effect: 60 min. Set-up: species or system isolated organ, male Wistar rats. From the text: It is well established that the depolarization of a smooth muscle membrane by potassium renders the latter permeable to extracellular calcium and induces muscle contraction. Consequently, the measurement of the inhibition of the contractile response to depolarization by potassium, or the measurement of a relaxation of the tonic contraction on potassium depolarization, can represent an evaluation of the power of a compound as an inhibitor of the membrane permeability to Ca^++ ions. The technique used was as follows: The aorta was removed from male Wistar rats weighing approximately 300 g, and cut into strips approximately 40 mm long and 3 mm wide. These fragments were placed in a 25-ml isolated organ trough containing a modified Krebs-bicarbonate solution (112 mM NaCl; 5 mM KCl; 25 mM NaHCO3; 1 mM KH2 PO4; 1.2 mM MgSO4; 2.5 mM CaCl2; 11.5 mM glucose, distilled water to 1000 ml) through which a stream of 5-7% carbon dioxide in oxygen was passed, and maintained at 37° C. The preparation was connected to a force microsensor and the contractile response recorded after amplification on a recorder. A tension of 2 g was applied to the preparation. This tension was maintained for 60 minutes in the modified Krebs-bicarbonate solution, and contractions were then induced by replacing the Krebs-bicarbonate solution by a potassium-Krebs solution (17 mM NaCl; 100 mM KCl; 25 mM NaHCO3; 1 mM KH2 PO4; 1.2 mM MgSO4; 2.5 mM CaCl2; 11.5 mM glucose; distilled water to 1000 ml). When the contractile response of the preparation had become reproducible, a given amount of a compound of the invention was introduced into the bath. Sixty minutes later, a new spasm was induced by potassium depolarization. The results obtained on the aorta used in the experiment were then expressed as a percentage of the maximum contractional effect before incubation with the test substance. By way of examples, the results which follow were obtained, the compounds of formula (1) being in the form of the base, hydrochloride or oxalate.

Where [1] appears, read: head printed "10^-" (exponent missing; first of three columns before 10^-6 M).

Turning to `CCCCN(CCCC)CCCOc1ccc(S(=O)(=O)c2ccncc2)cc1.O=C(O)C(=O)O.O=C(O)C(=O)O` [Ex. 60, 4-{4-[3-(di-n-butylamino)propyloxy]benzenesulphonyl}pyridine dioxalate], the activity at 1 µM was found to be 75.5% and the activity at 0.1 µM was found to be 89.7%. For the same molecule, the “% of the maximum contractional effect” value under setting [1] stood at 20.2%.
In the case of `COc1ccc(CCN(C)CCCOc2ccc(S(=O)(=O)c3c(C(C)C)[nH]c4ccccc34)cc2)cc1OC` [Ex. 105, 2-isopropyl-3-[4-{3-[N-methyl-N-(3,4-dimethoxy-β-phenethyl)amino]propyloxy}benzenesulphonyl]indole hemioxalate], the activity at 0.1 µM was found to be 11.9%. In addition, for the setting “10^-8 M”, the activity at 0.01 µM is 62.9%. Under “10^-9 M”, the activity at 0.001 µM stood at 83.6%.
For `CCc1ccccc1S(=O)(=O)c1ccc(OCCCNC(C)(C)C)cc1` [Ex. 119, 2-ethyl-1-[4-{3-(tert-butylamino)propyloxy}benzenesulphonyl]benzene acid oxalate], the activity at 1 µM came to 32% and the activity at 0.1 µM is 83.3%.
As for `CCCN(CCC)CCCOc1ccc(S(=O)(=O)c2c(C)cn3ccccc23)cc1` [Ex. 5, 2-Methyl-1-{4-[3-(di-n-propylamino)propyloxy]benzenesulphonyl}indolizine], the activity at 1 µM came to 48.9%.
Turning to `CCCCN(CCCC)CCCOc1ccc(S(=O)(=O)c2c(CC)cc3ccccn23)cc1` [Ex. 123, 2-ethyl-3-{4-[3-(di-n-butylamino)propyloxy]benzenesulphonyl}indolizine acid oxalate], the activity at 1 µM is 5.8% and the activity at 0.1 µM came to 16.8%. In addition, the activity at 0.01 µM (10^-8 M) was determined as 54.6%. Also, the activity at 0.001 µM (10^-9 M) turned out to be 75.3%.
In the case of `COc1ccc(CCN(C)CCCOc2ccc(S(=O)(=O)c3nccn3Cc3ccccc3)cc2)cc1OC` [Ex. 97, 1-benzyl-2-[4-{3-[N-methyl-N-(3,4-dimethoxy-β-phenethyl)amino]propyloxy}benzenesulphonyl]imidazole acid oxalate], the activity at 1 µM amounted to 66.7% and the activity at 0.1 µM worked out at 87.5%. Also, the “% of the maximum contractional effect” value under setting [1] was 23.5%.
Take `CCCCN(CCCC)CCCOc1ccc(S(=O)(=O)c2ccc3ccccc3c2)cc1` [Ex. 127, 2-{4-[3-(di-n-butylamino)propyloxy]benzenesulphonyl}-naphthalene acid oxalate]: the activity at 1 µM turned out to be 50.7% and the activity at 0.1 µM turned out to be 86.2%.
For `Cc1cc(S(=O)(=O)c2c(-c3ccccc3)cn3ccccc23)ccc1OCCCNC(C)(C)C` [Ex. 25, 2-Phenyl-1-{4-[3-(tert-butylamino)propyloxy]-3-methylbenzenesulphonyl}indolizine hydrochloride], the activity at 1 µM was determined as 67.7%.
Take `COc1ccc(CCN(C)CCOc2ccc(S(=O)(=O)c3c(C(C)C)oc4ccccc34)cc2)cc1OC` [Ex. 91, 2-Isopropyl-3-[4-{2-[N-methyl-N-(3,4-dimethoxy-β-phenethyl)amino]ethyloxy}benzenesulphonylbenzofuran hemioxalate]: the activity at 0.1 µM came to 11.1%. Moreover, where the note is “10^-8 M”, the activity at 0.01 µM worked out at 53.9%.
For the molecule `CC(C)c1cn2ccccc2c1S(=O)(=O)c1ccc(OCCCNCc2ccccc2)cc1` [Ex. 32, 2-Isopropyl-1-{4-[3-(benzylamino)propyloxy]benzenesulphonyl}indolizine hydrochloride], the activity at 1 µM worked out at 3.6% and the activity at 0.1 µM was 19.4%. The activity at 0.01 µM (10^-8 M) amounted to 65.9%.
With `CCCCN(CCCC)CCOc1ccc(S(=O)(=O)c2c(CC)cn3ccccc23)cc1` [Ex. 22, 2-Ethyl-1-{4-[2-(di-n-butylamino)ethyloxy]benzenesulphonyl}indolizine hydrochloride], the activity at 0.1 µM stood at 37%. Further, the activity at 0.01 µM (10^-8 M) worked out at 90.2%.
Consider `CC(C)c1occc1S(=O)(=O)c1ccc(OCCCNC(C)(C)C)cc1` [Ex. 79, 2-isopropyl-3-{4-[3-(tert-butylamino)propyloxy]benzenesulphonyl}furan oxalate], for which the activity at 1 µM was determined as 10.3% and the activity at 0.1 µM stood at 77.9%. Moreover, the activity at 0.01 µM (10^-8 M) amounted to 94.3%.
For the molecule `COc1ccc(CCN(C)CCCOc2ccc(S(=O)(=O)c3c(C(C)C)c4ccccc4n3C)cc2)cc1OC` [Ex. 113, 1-methyl-3-isopropyl-2-[4-{3-[N-methyl-N-(3,4-dimethoxy-β-phenethyl)amino]propyloxy}benzenesulphonyl]indole acid oxalate], the activity at 0.01 µM (10^-8 M) was found to be 41.1%.
Regarding `CCCCN(CCCC)CCCCCOc1ccc(S(=O)(=O)c2c(CC)cn3ccccc23)cc1` [Ex. 40, 2-Ethyl-1-{4-[5-(di-n-butylamino)pentyloxy]benzenesulphonyl}indolizine], the activity at 0.1 µM came to 49.7%. Moreover, the activity at 0.01 µM (10^-8 M) was determined as 87.9%.
With `CCCCN(CCCC)CCCOc1ccc(S(=O)(=O)c2ccccc2C(C)C)cc1` [Ex. 115, 2-Isopropyl-1-{4-[3-(di-n-butylamino)propyloxy]benzenesulphonyl}benzene acid oxalate], the activity at 0.1 µM is 43.2%. Also, where the note is “10^-9 M”, the activity at 0.001 µM is 89.1%.
With `COc1ccc(CCN(C)CCCOc2ccc(S(=O)(=O)c3ccccc3C(C)C)cc2)cc1OC` [Ex. 114, 2-isopropyl-1-[4-{3-[N-methyl-N-(3,4-dimethoxy-β-phenethyl)amino]propyloxy}benzenesulphonyl]benzene acid oxalate], the activity at 1 µM was found to be 3.7% and the activity at 0.1 µM is 21.7%. Moreover, the activity at 0.01 µM (10^-8 M) is 59.3%. In addition, the activity at 0.001 µM (10^-9 M) is 93.3%.
As to `COc1ccc(CN(C)CCCOc2ccc(S(=O)(=O)c3c(C(C)C)cn4ccccc34)cc2)cc1OC` [Ex. 41, 2-Isopropyl-1-[4-{3-[N-methyl-N-(3,4-dimethoxybenzyl)-amino]propyloxy}benzenesulphonyl]indolizine], the activity at 0.1 µM worked out at 5.3%. Further, the activity at 0.01 µM (10^-8 M) was found to be 26.1%. In addition, the activity at 0.001 µM (10^-9 M) is 70.9%.
Turning to `COc1cc(CCNCCCOc2ccc(S(=O)(=O)c3c(C(C)C)cn4ccccc34)cc2)cc(C)c1OC.O=C(O)C(=O)O` [Ex. 139, 2-isopropyl-1-[4-{3-[N-(3,4-dimethoxy-5-methyl-β-phenethyl)amino]propyloxy}benzenesulphonyl]-indolizine acid oxalate], the “% of the maximum contractional effect” value was determined as 49% (10^-8 M, 0.01 µM) and 89% (10^-9 M, 0.001 µM).
In the case of `CC(C)c1cn2ccccc2c1S(=O)(=O)c1ccc(OCCCNCCc2ccccn2)cc1` [Ex. 34, 2-Isopropyl-1-{4-[3-(2-pyridylethylamino)propyloxy]benzenesulphonyl}indolizine dioxalate], the activity at 1 µM is 3.3% and the activity at 0.1 µM worked out at 28.1%. The activity at 0.01 µM (10^-8 M) was 82.6%.
The corresponding values for `CC(C)c1cn2ccccc2c1S(=O)(=O)c1ccc(OCCCN2CCC(c3ccccc3)CC2)cc1` [Ex. 35, 2-Isopropyl-1-{4-[3-(4-phenylpiperidino)propyloxy]-benzenesulphonyl}indolizine] are 8.3%, 25% and 65.6%.
Take `CCc1cn2ccccc2c1S(=O)(=O)c1ccc(OCCCn2ccnc2)cc1` [Ex. 38, 2-Ethyl-1-{4-[3-(1-imidazolyl)propyloxy]benzenesulphonyl}indolizine]: the activity at 0.1 µM was found to be 85.9%.
For `CCCCN(CCCC)CCCOc1ccc(S(=O)(=O)c2ccoc2C(C)C)cc1` [Ex. 78, 2-isopropyl-3-{4-[3-(di-n-butylamino)propyloxy]benzenesulphonyl}furan oxalate], the activity at 1 µM came out at 4% and the activity at 0.1 µM came to 59.4%. Moreover, the activity at 0.01 µM (10^-8 M) was 90.3%.
As to `COc1cc(CCN(C)CCCOc2ccc(S(=O)(=O)c3c(C(C)C)cn4ccccc34)cc2)cc(OC)c1OC` [Ex. 134, 2-isopropyl-1-[4-{3-[N-methyl-N-(3,4,5-trimethoxy-β-phenethyl)amino]propyloxy}benzenesulphonyl]indolizine acid oxalate], the activity at 0.1 µM amounted to 18.9%. For the same molecule, the activity at 0.01 µM (10^-8 M) is 21.4%. Moreover, the activity at 0.001 µM (10^-9 M) stood at 65.7%.
In the case of `COc1ccc(CCN(C)CCCOc2ccc(S(=O)(=O)c3nccn3C(C)C)cc2)cc1OC` [Ex. 96, 1-isopropyl-2-[4-{3-[N-methyl-N-(3,4-dimethoxy-β-phenethyl)amino]propyloxy}benzenesulphonyl]imidazole dihydrochloride], the activity at 1 µM turned out to be 92.4% and the activity at 0.1 µM was 87.3%. The “% of the maximum contractional effect” value under setting [1] was 65.8%.
Take `CC(C)c1ccccc1S(=O)(=O)c1ccc(OCCCNC(C)(C)C)cc1` [Ex. 118, 2-isopropyl-1-[4-{3-(tert-butylamino)propyloxy}benzenesulphonyl]benzene acid oxalate]: the activity at 1 µM amounted to 2.7% and the activity at 0.1 µM stood at 52.2%. Further, the activity at 0.01 µM (10^-8 M) worked out at 92.3%.
